The compounds below were run against T1, Human orexin receptor type 2 (Homo sapiens, UniProt O43614) (assay: Test 2: Evaluation of agonist activity for orexin receptor type 2 (aequorin luminescence, intracellular calcium mobilization in CHO cells)). Conditions: relative percentage of luminescence for the luminescence (100%) of Orexin A (100 pM); CHO cells transiently expressing human orexin receptor type 2 and apoaequorin; Orexin A Lot. 671009.
T1 construct: expressed in transfected cells; host or cells: CHO cells (transient expression)
T1 sequence (O43614 1-444): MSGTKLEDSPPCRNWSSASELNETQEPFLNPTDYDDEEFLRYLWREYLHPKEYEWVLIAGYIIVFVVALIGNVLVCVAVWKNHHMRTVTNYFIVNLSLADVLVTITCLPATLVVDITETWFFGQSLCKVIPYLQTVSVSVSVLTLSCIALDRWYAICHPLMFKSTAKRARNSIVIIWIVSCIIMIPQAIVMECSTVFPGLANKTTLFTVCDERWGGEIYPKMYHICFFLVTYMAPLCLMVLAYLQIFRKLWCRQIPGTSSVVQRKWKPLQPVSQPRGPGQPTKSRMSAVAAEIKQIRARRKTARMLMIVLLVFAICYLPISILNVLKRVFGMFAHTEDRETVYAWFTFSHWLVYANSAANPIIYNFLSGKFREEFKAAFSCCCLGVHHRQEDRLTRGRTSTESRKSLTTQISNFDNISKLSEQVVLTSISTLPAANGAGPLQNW
Format: cell-based
Experimental: Test 2: Evaluation of Agonist Activity for Orexin Receptor Type 2
Human orexin receptor type 2 and apoaequorin were transiently expressed in CHO cells, and the agonist activity was evaluated based on intracellular calcium mobilization with ligand stimulation. The CHO cells transiently-expressed human orexin receptor type 2 and apoaequorin were seeded on a 384-well plate by 2,000 cells/well, and then incubated for 16-22 hours. After the plate was returned to room temperature, Coelenterazine hcp (final concentration: 1 μM) was added to the plate, and the plate was allowed to stand at room temperature for 2 hours. And then, Orexin A (PEPTIDE INSTITUTE, INC., Lot. 671009) or each test compound was added to the plate, and the luminescence of the cells was measured with FDSS7000 (Hamamatsu Photonics K.K.), wherein Orexin A and each test compound were dissolved in DMSO (final concentration: 0.1%), and diluted with a buffer (Hanks, 20 mM HEPES, 0.1% BSA). The agonist activity of each test compound for orexin receptor type 2 was calculated as relative percentage of luminescence for the luminescence (100%) of Orexin A (100 pM).

Row | agonist activity (%) | SMILES
1 | 435 | CCN(CC)C1CCN([C@H]2CCCC(F)(F)[C@@H]2NC(=O)N2CCC(C)(c3noc([C@@H]4C[C@@H]4F)n3)CC2)CC1 [Example 129, N-{(1R,6S)-6-[4-(diethylamino)piperidin-1-yl]-2,2-difluorocyclohexyl}-4-{5-[(1S,2S)-2-fluorocyclopropyl]-1,2,4-oxadiazol-3-yl}-4-methylpiperidine-1-carboxamide]
2 | 450 | Cc1ccc(C2(C)CCN(C(=O)N[C@@H]3[C@@H](O[C@H]4CCN(CC5(C)CC5)C4)CCCC3(F)F)CC2)cc1 [Example 130, N-[(1R,6S)-2,2-difluoro-6-({(3S)-1-[(1-methylcyclopropyl)methyl]pyrrolidin-3-yl}oxy)cyclohexyl]-4-methyl-4-(4-methylphenyl)piperidine-1-carboxamide]
3 | 461 | CC(C)N(C)C1(C)CCN([C@H]2CCCC(F)(F)[C@@H]2NC(=O)N2CCC(C)(c3noc([C@@H]4C[C@@H]4F)n3)CC2)CC1 [Example 131, N-[(1R,6S)-2,2-difluoro-6-{4-methyl-4-[methyl(propan-2-yl)amino]piperidin-1-yl}cyclohexyl]-4-{5-[(1S,2S)-2-fluorocyclopropyl]-1,2,4-oxadiazol-3-yl}-4-methylpiperidine-1-carboxamide]
4 | 166 | CC(C)N1CCN(C(=O)[C@H]2CCCC(F)(F)[C@@H]2NC(=O)N2CCC(C)(c3noc([C@@H]4C[C@@H]4F)n3)CC2)CC1 [Example 132, N-{(1R,6S)-2,2-difluoro-6-[4-(propan-2-yl)piperazine-1-carbonyl]cyclohexyl}-4-{5-[(1S,2S)-2-fluorocyclopropyl]-1,2,4-oxadiazol-3-yl}-4-methylpiperidine-1-carboxamide]
5 | 506 | CC1(c2noc([C@@H]3C[C@@H]3F)n2)CCN(C(=O)N[C@@H]2[C@@H](O[C@H]3CCN(CC4(F)CC4)C3)CCCC2(F)F)CC1 [Example 133, N-[(1R,6S)-2,2-difluoro-6-({(3S)-1-[(1-fluorocyclopropyl)methyl]pyrrolidin-3-yl}oxy)cyclohexyl]-4-{5-[(1S,2S)-2-fluorocyclopropyl]-1,2,4-oxadiazol-3-yl}-4-methylpiperidine-1-carboxamide]
6 | 456 | CN(CC1(C)CC1)C1CCN([C@H]2CCCC(F)(F)[C@@H]2NC(=O)N2CCC(C)(c3noc([C@@H]4C[C@@H]4F)n3)CC2)CC1 [Example 134, N-[(1R,6S)-2,2-difluoro-6-(4-{methyl[(1-methylcyclopropyl)methyl]amino}piperidin-1-yl)cyclohexyl]-4-{5-[(1S,2S)-2-fluorocyclopropyl]-1,2,4-oxadiazol-3-yl}-4-methylpiperidine-1-carboxamide]

More lines, now with the values behind:

Row | SMILES | agonist activity (%)
7 | CC(C)(C)CN1CC[C@H](O[C@H]2CCCC(F)(F)[C@@H]2NC(=O)N2CCC(C)(c3noc(C4CC4)n3)CC2)C1 [Example 119, 4-(5-cyclopropyl-1,2,4-oxadiazol-3-yl)-N-[(1R,6S)-6-{[(3S)-1-(2,2-dimethylpropyl)pyrrolidin-3-yl]oxy}-2,2-difluorocyclohexyl]-4-methylpiperidine-1-carboxamide] | 378
8 | CC(C)(C)CN1CC[C@H](O[C@H]2CCCC(F)(F)[C@@H]2NC(=O)N2CCC(C)(c3noc([C@@H]4C[C@@H]4F)n3)CC2)C1 [Example 120, N-[(1R,6S)-6-{[(3S)-1-(2,2-dimethylpropyl)pyrrolidin-3-yl]oxy}-2,2-difluorocyclohexyl]-4-{5-[(1S,2S)-2-fluorocyclopropyl]-1,2,4-oxadiazol-3-yl}-4-methylpiperidine-1-carboxamide] | 387
9 | CC1(CN2CC[C@H](O[C@H]3CCCC(F)(F)[C@@H]3NC(=O)N3CCC(C)(c4noc([C@@H]5C[C@@H]5F)n4)CC3)C2)CC1 [Example 121, N-[(1R,6S)-2,2-difluoro-6-({(3S)-1-[(1-methylcyclopropyl)methyl]pyrrolidin-3-yl}oxy)cyclohexyl]-4-{5-[(1S,2S)-2-fluorocyclopropyl]-1,2,4-oxadiazol-3-yl}-4-methylpiperidine-1-carboxamide] | 379
10 | CC1(c2noc(C3CC3)n2)CCN(C(=O)N[C@@H]2[C@@H](O[C@H]3CCN(CC4CC4)C3)CCCC2(F)F)CC1 [Example 122, N-[(1R,6S)-6-{[(3S)-1-(cyclopropylmethyl)pyrrolidin-3-yl]oxy}-2,2-difluorocyclohexyl]-4-(5-cyclopropyl-1,2,4-oxadiazol-3-yl)-4-methylpiperidine-1-carboxamide] | 369
11 | CC(C)N1CCC(N(C)[C@H]2CCCC(F)(F)[C@@H]2NC(=O)N2CCC(C)(c3noc([C@@H]4C[C@@H]4F)n3)CC2)CC1 [Example 123, N-[(1R,6S)-2,2-difluoro-6-{methyl[1-(propan-2-yl)piperidin-4-yl]amino}cyclohexyl]-4-{5-[(1S,2S)-2-fluorocyclopropyl]-1,2,4-oxadiazol-3-yl}-4-methylpiperidine-1-carboxamide] | 366
12 | CC1(c2noc([C@@H]3C[C@@H]3F)n2)CCN(C(=O)N[C@@H]2[C@@H](N3CCC(N4CCCC4)CC3)CCCC2(F)F)CC1 [Example 124, N-{(1R,6S)-2,2-difluoro-6-[4-(pyrrolidin-1-yl)piperidin-1-yl]cyclohexyl}-4-{5-[(1S,2S)-2-fluorocyclopropyl]-1,2,4-oxadiazol-3-yl}-4-methylpiperidine-1-carboxamide] | 391
13 | CC(C)N1CC2CN([C@H]3CCCC(F)(F)[C@@H]3NC(=O)N3CCC(C)(c4noc([C@@H]5C[C@@H]5F)n4)CC3)CC2C1 (stereo partly drawn) [Example 125, N-{(1R,6S)-2,2-difluoro-6-[5-(propan-2-yl)hexahydropyrrolo[3,4-c]pyrrol-2(1H)-yl]cyclohexyl}-4-{5-[(1S,2S)-2-fluorocyclopropyl]-1,2,4-oxadiazol-3-yl}-4-methylpiperidine-1-carboxamide] | 402
14 | CC1(CN2CC[C@H](O[C@H]3CCCC(F)(F)[C@@H]3NC(=O)N3CCC(C)(c4noc(C5CC5)n4)CC3)C2)CC1 [Example 126, 4-(5-cyclopropyl-1,2,4-oxadiazol-3-yl)-N-[(1R,6S)-2,2-difluoro-6-({(3S)-1-[(1-methylcyclopropyl)methyl]pyrrolidin-3-yl}oxy)cyclohexyl]-4-methylpiperidine-1-carboxamide] | 394
15 | CC(C)N1CCC2(CCN([C@H]3CCCC(F)(F)[C@@H]3NC(=O)N3CCC(C)(c4noc([C@@H]5C[C@@H]5F)n4)CC3)CC2)C1 [Example 127, N-{(1R,6S)-2,2-difluoro-6-[2-(propan-2-yl)-2,8-diazaspiro[4.5]decan-8-yl]cyclohexyl}-4-{5-[(1S,2S)-2-fluorocyclopropyl]-1,2,4-oxadiazol-3-yl}-4-methylpiperidine-1-carboxamide] | 367
16 | CC(C)CN(C)[C@H]1CCN([C@H]2CCCC(F)(F)[C@@H]2NC(=O)N2CCC(C)(c3noc([C@@H]4C[C@@H]4F)n3)CC2)C1 [Example 128, N-[(1R,6S)-2,2-difluoro-6-{(3S)-3-[methyl(2-methylpropyl)amino]pyrrolidin-1-yl}cyclohexyl]-4-{5-[(1S,2S)-2-fluorocyclopropyl]-1,2,4-oxadiazol-3-yl}-4-methylpiperidine-1-carboxamide] | 402

Reference: US12162872B2, “Cycloalkylurea derivative” (Sumitomo Pharma Co., Ltd., priority 2019, dated 2024)
